{"source": "patent US20240398836A1", "about": "“EPOXY STEROIDS” (priority 2021, published 2024)", "key": {"BiBo cells": {"system": "BiBo cells", "test": "Apoptosis induction in polycytostatics-resistant BiBo cells vs BJAB", "type": "cell-based", "conditions": "vincristine-resistant BJAB, Bcl-2 overexpression", "experimental": "BiBo cells are lymphoma cells (BJAB cells) that have been made resistent against vincristine, and have a Bcl-2 overexpression as a resistence mechanism. They have co-resistences for the following cytostatics: • vincristine, vinblastine, vindesine, vinorelbin, taxol • cytarabin • daunorubicin.\nThe experiments were performed in triplicate. The error bars show the standard deviations of the measured values of three independent experiments. The steroid WIL 071 overcomes steroid resistence in lymphoma cells (BiBo cells)."}, "[1]": {"test": "Tolerability (dose escalation, MTD) in an animal model", "type": "in vivo, NOG-F (Taconic) mice", "experimental": "An incremental increase of dose of the three substances Wil-071, Wil-232 and Wil-369 was performed in 8-week-old female NOG-F (Taconic) mice. Different mice were administered one of up to seven different doses of the test substances. The start was on day 1 with the lowest dose of 10 mg/kg. […] All in all, if possible, the doses 10, 20, 40, 80, 100, 150 and 200 mg/kg are tested. Subsequently, the maximum tolerable dose (MTD) was administered to three more animals, and these were subsequently observed for one week, in order to be able to observe any developing symptoms. For this purpose, the animals were observed and weighed on a daily basis. The body weight is considered an indicator of the general condition of the animals.\nFor the MTD experiment, Wil-071 was dissolved in 100% DMSO, and then diluted 1:50 with a 20% (w/v) 2-hydroxypropyl-beta-cyclodextrin (HPβCD) solution. Thus, 200 μL of injection solution (per mouse) of a 40 mg/kg dose could be achieved. For 80, 100 and 150 mg/kg, the DMSO proportion was increased to up to 4% (v/v) in the final injection solution. In addition, ultrasound had to be employed, and the sample had to be heated at 60° C. for up to 45 min. 200 mg/kg was reached only as a milky suspension. […] Therefore, Wil-071 can be considered non-toxic up to 150 mg/kg. The final MTD could not be determined because of the insufficient solubility.\nFor 100 mg/kg of Wil-232, the end concentration of DMSO in the injection solution was 2%. In order to dissolve Wil-232, the sample also had to be treated with ultrasound, and heated at 60° C. The dose of 150 mg/kg was achieved only with 4% DMSO, and 200 mg/kg was achieved only as a suspension. […] Otherwise, there were no signs of toxicity, so that the substance can be considered tolerable up to 150 mg/kg. In this case too, a final MTD cannot be determined because of insufficient solubility.\nUsing a DMSO stock and 20% HPβCD solution, a maximum of only 5 mg/ml was dissolved. A further increase could not be achieved even with more DMSO or HPβCD. Thus, above the dose of 40 mg/kg, a higher injection volume was injected in order to reach the corresponding dose. […] For the tolerability under the current solubility conditions, a value of […] is to be applied. This dose was injected into the 8 animals for pharmacokinetics. In this case too, a final MTD cannot be determined because of insufficient solubility."}, "Nalm-6 cells": {"system": "Nalm-6 cells", "test": "Synergistic apoptosis induction with cytarabin or vincristine", "type": "cell-based", "experimental": "The experiments were performed in triplicate. The error bars show the standard deviations of the measured values of three independent experiments."}, "[2]": {"system": "prednisolone-resistant leukemia cells", "test": "Overcoming of prednisolone resistance", "type": "cell-based", "conditions": "72 h", "experimental": "The cells were incubated in 6-well plates with 1.0·10^5 cells/mL in two milliliters of medium with the respective steroid derivative in different concentrations. The included solvent control (DMSO) served as a control, which was subtracted from all the other measured values, in order not to take into account the spontaneous apoptosis of the cells that takes place independently of the concentration of active ingredient. After 72 h, a modified cell cycle analysis was performed, in order to quantify the proportion of apoptotic cells by flow cytometry. For each concentration of the steroid, the respective mean values f standard deviations, n=3 (*: p<0.05 vs. DMSO, t test) were determined. Using the curve of the dose-effect relationship (steroid concentration−apoptosis induction) formed from these measured values, the steroid concentration at which apoptosis was triggered in 50% of the tested leukemia cells was read.\nPrednisolone resistance is said to be overcome if the induction of apoptosis in prednisolone-resistant leukemia cells is as high as it is in normal leukemia cells."}}, "data": [{"smiles": "CC(C)CCC[C@@H](C)[C@H]1CC[C@H]2[C@@H]3[C@H]4OC[C@@]5(CC[C@H](O)C[C@]5(O)C4=O)[C@H]3CC[C@]12C", "note": "[WIL-071, 3β,5α-dihydroxy-7β,19-epoxy-cholestan-6-one]", "values": [{"measurement": "apoptosis induction in resistant BiBo cells compared with BJAB", "setting": "BiBo cells", "result": "induces as much apoptosis as in the non-resistent lymphoma cells"}, {"measurement": "outcome of injection of the 200 mg/kg suspension", "setting": "[1]; 200 mg/kg as suspension, signs of pulmonary embolism in section", "result": "immediate death of the animal"}, {"measurement": "dose up to which non-toxic / tolerable", "setting": "[1]; injection into caudal vein, mice, final MTD not determinable because of solubility", "result": "up to 150 mg/kg"}, {"measurement": "synergistic effect on apoptosis with cytarabin", "setting": "Nalm-6 cells; Nalm-6, parallel treatment with cytarabin", "result": "synergistic effects"}, {"measurement": "synergistic effect on apoptosis with vincristine", "setting": "Nalm-6 cells; Nalm-6, parallel treatment with vincristine", "result": "synergistic effects"}, {"measurement": "EC50", "setting": "[2]", "result": 16, "unit": "µM"}]}]}
